What was measured:
[1] = tested on: laser induced CNV in WT mice; assay: Fibrovascular scarring after laser induced CNV, 14 days; assay type: in vivo, mouse; conditions: IL-18 0.3ng/eye intravitreally, vs vehicle control
Description: FIG. 24 illustrates IL-18 reduces the area of fibrovascular scarring, wherein WT mice underwent laser induced CNV and were injected intravitreally with IL-18 (0.3ng/eye), wherein 14 days later eyes were enucleated, flatmounts were stained with F4/80, vimentin and isolectin and imaged by confocal microscopy; and […]

VEGF = VEGF in HOCFs treated with IL-18; assay type: cell-based, human; conditions: IL-18 100 ng/ml over 24 h
Description: FIG. 20 illustrates IL-18 activates human ocular choroidal fibroblasts and inhibits VEGF secretion, wherein (A) is human ocular choroidal fibroblast (HOCFs) treated with IL-18 at increasing doses for 8 h, wherein cells were fixed and stained with antibody targeting intermediate filament vimentin (red), Hoechst (blue) and phalloidin (green); (B) is HOCFs treated with IL-18 (100 ng/ml) over 60 mins and immunoblotted for phospho-ERK and phospo-p65 with B-actin and GAPDH as controls; (C) is HOCFs treated with IL-18 (100 ng/ml) over 24 h as indicated, wherein cells were analysed for VEGF expression by qPCR (D) is HOCFs treated with 10, 100 or 1000 ng/ml of IL-18 as indicated over 48 h and cell death was analysed by LDH assay;

occludin = assay: Occludin expression in HRMEC (qPCR and immunoblotting); assay type: cell-based, human
Description: FIG. 18 illustrates IL-18 drives expression of tight junction protein occludin and inhibits VEGF depletion of occluding, wherein HRMECS were treated with either VEGF, IL-18 or IL-1α for the timepoints indicated (top panel) and cells were prepared for RNA isolation and qPCR with expression of occluding measured, wherein HRMECs were treated with VEGF, IL-18 or IL-1 or combinations of these cytokines and cells were prepared for immunoblotting for expression of occludin and b-actin (lower panels);
Following transfer, membranes were blocked by incubating in 5% non-fat dried milk (Marvel) in TBS-T for 1 hour at room temperature whilst shaking. Membranes were incubated with primary antibody diluted in either 5% Marvel or BSA, depending on antibody specification, overnight at 4° C. with gentle agitation. Primary antibody was recovered and stored at −20. Membranes were washed three times in TBS-T for 5 minutes and membranes were incubated with secondary antibody, diluted in 5% Marvel, for 1 hour at room temperature. Secondary antibody was removed and discarded, and excess secondary was removed from the membranes by three 5-minute washes in TBS-T.
All RT-PCR assays were carried out using the SensiFAST SYBR Hi-ROX Kit (Bioline) with primers designed using Primer-BLAST (NCBI). For each target a master-mix comprising of 4 μl SYBR Green mix, 0.5 μl of Forward primer (4 μM) and 0.5 μl of Reverse primer (4 μM) along and 3 μl of RNAse free H2O was prepared and mixed thoroughly by vortexing. 8 μl of master-mix was added to each well of a 0.1 mL MicroAMP® Fast 96-well Reaction Plate (Applied Biosystems), along with 2 μl of cDNA and sealed using Optical adhesive film (Applied Biosystems) and spun down for 30 seconds in a centrifuge fitted with microplate rotor (Eppendorf) before running. Plate were run using a QuantStudio 3 real-time PCR System (Applied Biosystems) or the StepOnePlus Real-Time PCR System (Applied Biosystems), with run conditions set as: 50° C. for 2 mins, 95° C. for 10 minutes, 40 cycles of 95° C. for 15 seconds then 60° C. for 1 minute. To assess the quality of Primers a melt-curve stage was added: 95° C. for 1 second, 60° C. for 20 seconds, 95° C. for 1 second. Data were analysed using the QuantStudio™ Design & Analysis software (Applied Biosystems) and using the comparative Ct (ΔΔCt) method where test samples were normalised to endogenous control (β-Actin) followed by normalising the ΔCt of test samples to sample control (untreated sample), then calculating 2^−ΔΔCt to find the relative fold change of test samples over sample control.

bone marrow derived MSCs = assay: Bone marrow derived mesenchymal stem cell activation (confocal microscopy); assay type: cell-based, mouse; conditions: IL-18 250 ng/ml, 8 h
Description: FIG. 21 illustrates IL-18 activates bone marrow derived mesenchymal stem cells, wherein bone marrow derived MSC's were treated with IL-18 at 250 ng/ml for 8 h and images using confocal microscopy, wherein cells were stained with phalloidin for F-actin, vimentin, smooth muscle actin (SMA) and collagen 1;
The femurs from mice were isolated and, using a 20 ml syringe, the bones were flushed with DMEM into a cell culture dish. The flushings were centrifuged for 5 minutes at 1000 rpm. The supernatant was poured off and resuspended in 1 ml of 15% FBS and aMEM media, and filtered through a 70 um nylon mesh into a 50 ml captube. A further 5 ml of 15% FBS and aMEM were added through the mesh tube into the same 50 ml cap tube, and plated in a TC coated dish and cultured in an incubator for 5 days. On Day 5, the dish was washed with PBS 3 times (using PBS with no magnesium or calcium),trypsinized and the trypsin pipetted onto the plate to break up the colonies. 10mis of 10% FBS and DMEM were added and the cells collected in a 50 ml cap tube and this process was repeated once more, centrifuged for 5 mins at 1000 rpm, supernatant poured off, cells resuspended in 1 ml of DMEM and 20% FBS, and plated in a T75 and fed every second day until cells were confluent. When cells were confluent, they were split 1 in 3.

[2] = tested on: primary human foetal RPE (hfRPE) cells; assay: Scratch assay in hfRPE cultures; assay type: cell-based; conditions: IL-18 10-1000 ng/ml, up to 18 hours
Description: FIG. 19 illustrates IL-18 induces fibroblast-like cells to migrate to close a wound created in human Retinal Pigment Epithelium monolayer in vitro, wherein primary human foetal RPE (hfRPE) cells were treated with control medium (0 ng/ml) or increasing doses of IL-18 (10-1000 ng/ml) immediately after making a scratch through the centre of the well, wherein microscopy images were acquired at the same location at baseline (0 hours) and then every 2 hours until 18 hours, representative images for each treatment group are shown, wherein cells were stained with DAPI to show the nuclei, and phalloidin to show F-actin, wherein Brightfield images (phase) are also shown;

“IL-18: recombinant human IL-18 (SB-485232; GSK)” was tested, and the “vimentin positive staining (area of fibrovascular scarring)” value [1] was “less vimentin positive staining”, the “baseline secretion of VEGF from HOCFs” value (VEGF) was “strongly reduces the baseline secretion of VEGF” and the “rescue of VEGF mediated occludin inhibition” value (occludin; combination with VEGF, immunoblotting) was “can rescue VEGF inhibition of occluding”. The “expression of tight junction protein occludin” value (occludin; single cytokine) was “increased expression of this tight junction protein”, the “appearance of vimentin and SMA in MSCs” value (bone marrow derived MSCs) was “strong effect on the appearance of vimentin and SMA” and the “collagen in MSCs” value (bone marrow derived MSCs) was “increased collagen in MSCs”. The “cell migration into wound in hfRPE monolayer” value [2] was “appearance of fibroblast-like cells that migrated across the wound”.

Source: patent publication US20250127857A1, “A COMPOSITION COMPRISING IL-36 AND/OR IL-18 FOR USE IN TREATING OCULAR DISORDERS” (THE PROVOST, FELLOWS, FOUNDATION SCHOLARS, & THE OTHER …, priority 2021, published 2025)
